Laboratory results reported in patent US6737383B1, “Herbicidal oxadiazolidines” (priority 1999, dated 2004).

How the values were obtained:
[1] = tested on: bedstraw; test: Test B pre/postemergence bedstraw; format: in vivo, Galium aparine
Outline: (§1)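 Response is a visual 0-to-10 score relative to untreated plants, where 0 means no effect and 10 means complete control, taken twelve to sixteen days after application. Treatments went onto soil at planting and onto foliage of 1- to 4-leaf plants, using a surfactant-containing non-phytotoxic solvent.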

[2] = tested on: corn; test: Test B pre/postemergence corn; format: in vivo, Zea mays
Outline: as §1

[3] = tested on: blackgrass; test: Test B pre/postemergence blackgrass; format: in vivo, Alopecurus myosuroides
Outline: as §1

[4] = tested on: rape; test: Test B pre/postemergence rape; format: in vivo, Brassica napus
Outline: as §1

[5] = tested on: velvetleaf; test: Test B pre/postemergence velvetleaf; format: in vivo, Abutilon theophrasti
Outline: as §1

[6] = tested on: sugar beet; test: Test B pre/postemergence sugar beet; format: in vivo, Beta vulgaris
Outline: as §1

[7] = tested on: purple nutsedge; test: Test B pre/postemergence purple nutsedge; format: in vivo, Cyperus rotundus
Outline: as §1

[8] = tested on: soybean; test: Test B pre/postemergence soybean; format: in vivo, Glycine max
Outline: as §1

[9] = tested on: wild oat; test: Test B pre/postemergence wild oat; format: in vivo, Avena fatua
Outline: as §1

[10] = tested on: smallflower flatsedge; test: Test B flood test smallflower flatsedge; format: in vivo, Cyperus difformis
Outline: (§2)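 Plants were grown to the 2-leaf stage before treatment with test chemical, then held in a greenhouse for twelve to sixteen days. Injury was visually rated against untreated controls on a 0–10 scale, where 0 is no effect and 10 is complete control.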

[11] = tested on: surinam grass; test: Test B pre/postemergence surinam grass; format: in vivo, Brachiaria decumbens
Outline: as §1

[12] = tested on: rice; test: Test B flood test rice; format: in vivo, Oryza sativa
Outline: as §2

[13] = tested on: crabgrass; test: Test B pre/postemergence crabgrass; format: in vivo, Digitaria sanguinalis
Outline: as §1

[14] = tested on: pigweed; test: Test B pre/postemergence pigweed; format: in vivo, Amaranthus retroflexus
Outline: as §1

[15] = tested on: wheat; test: Test B pre/postemergence wheat; format: in vivo, Triticum aestivum
Outline: as §1

[16] = tested on: duck salad; test: Test B flood test duck salad; format: in vivo, Heteranthera limosa
Outline: as §2

[17] = Preemergence, Rate 62 g/ha, scale of 0 to 10 where 0 is no effect and 10 is complete control
[18] = Preemergence, Rate 250 g/ha, scale of 0 to 10 where 0 is no effect and 10 is complete control
[19] = Preemergence, Rate 500 g/ha, scale of 0 to 10 where 0 is no effect and 10 is complete control
[20] = Rate 62 g/ha, Postemergence, scale 0 to 10 (0 no effect, 10 complete control)
[21] = Rate 125 g/ha, Postemergence, scale of 0 to 10 where 0 is no effect and 10 is complete control
[22] = Rate 125 g/ha, Preemergence, scale of 0 to 10 where 0 is no effect and 10 is complete control
[23] = Rate 250 g/ha, Postemergence, scale of 0 to 10 where 0 is no effect and 10 is complete control
[24] = Rate 500 g/ha, Postemergence, scale 0 to 10, 0 no effect, 10 complete control
[25] = Rate 62 g/ha, headed Pre-emergence (flood test species), scale 0 to 10 (0 no effect, 10 complete control)
[26] = Rate 125 g/ha, Pre-emergence, flood test species, scale 0 to 10 where 0 is no effect and 10 is complete control
[27] = Rate 250 g/ha, Pre-emergence, flood-test species, scale 0 to 10, 0 is no effect, 10 is complete control
[28] = Rate 500 g/ha, Pre-emergence, flood test species, scale 0 to 10 (0 no effect, 10 complete control)

Q: What does the source list for `CC(C)N(C(=O)n1oc(=O)n(C2CCCC2)c1=O)c1ccc(F)cc1F` [Compound 284]?
A: Bedstraw plant response rating [1, 17]: 0; Bedstraw plant response rating [1, 18]: 8; Plant response rating, Bedstraw [1, 19]: 8; Bedstraw plant response rating [1, 20]: 2; Bedstraw plant response rating [1, 21]: 5; Bedstraw plant response rating [1, 22]: 8; Plant response rating, Bedstraw [1, 23]: 6; Bedstraw plant response rating [1, 24]: 9; Corn plant response rating [2, 17]: 0; Corn plant response rating [2, 18]: 0; Plant response rating, Corn [2, 19]: 0; Corn plant response rating [2, 20]: 0; Corn plant response rating [2, 21]: 0; Corn plant response rating [2, 22]: 0; Plant response rating, Corn [2, 23]: 0; Corn plant response rating [2, 24]: 0; Blackgrass plant response rating [3, 17]: 0; Blackgrass plant response rating [3, 18]: 8; Plant response rating, Blackgrass [3, 19]: 10; Blackgrass plant response rating [3, 20]: 3; Blackgrass plant response rating [3, 21]: 5; Blackgrass plant response rating [3, 22]: 4; Plant response rating, Blackgrass [3, 23]: 7; Blackgrass plant response rating [3, 24]: 8; Rape plant response rating [4, 17]: 2; Rape plant response rating [4, 18]: 7; Plant response rating, Rape [4, 19]: 7; Rape plant response rating [4, 20]: 1; Rape plant response rating [4, 21]: 3; Rape plant response rating [4, 22]: 2; Plant response rating, Rape [4, 23]: 4; Velvetleaf plant response rating [5, 17]: 0; Velvetleaf plant response rating [5, 18]: 0; Plant response rating, Velvetleaf [5, 19]: 7; Velvetleaf plant response rating [5, 20]: 0; Velvetleaf plant response rating [5, 21]: 0; Velvetleaf plant response rating [5, 22]: 0; Plant response rating, Velvetleaf [5, 23]: 2; Sugarbeets plant response rating [6, 17]: 2; Sugarbeets plant response rating [6, 18]: 6; Plant response rating, Sugarbeets [6, 19]: 6; Sugarbeets plant response rating [6, 20]: 1; Sugarbeets plant response rating [6, 21]: 3; Sugarbeets plant response rating [6, 22]: 5; Plant response rating, Sugarbeets [6, 23]: 5; Nutsedge plant response rating [7, 17]: 0; Nutsedge plant response rating [7, 18]: 0; Plant response rating, Nutsedge [7, 19]: 0; Nutsedge plant response rating [7, 20]: 0; Nutsedge plant response rating [7, 21]: 0; Nutsedge plant response rating [7, 22]: 0; Plant response rating, Nutsedge [7, 23]: 0; Soybean plant response rating [8, 17]: 0; Soybean plant response rating [8, 18]: 0; Plant response rating, Soybean [8, 19]: 3; Soybean plant response rating [8, 20]: 4; Soybean plant response rating [8, 21]: 4; Soybean plant response rating [8, 22]: 0; Plant response rating, Soybean [8, 23]: 4; Wild oats plant response rating [9, 17]: 0; Wild oats plant response rating [9, 18]: 3; Plant response rating, Wild oats [9, 19]: 5; Wild oats plant response rating [9, 20]: 0; Wild oats plant response rating [9, 21]: 0; Plant response rating, Wild oats [9, 23]: 0; S. Flatsedge plant response rating [10, 25]: 0; S. Flatsedge plant response rating [10, 26]: 0; S. Flatsedge plant response rating [10, 27]: 0; S. Flatsedge plant response rating [10, 28]: 0; B. signalgrass plant response rating [11, 17]: 5; B. signalgrass plant response rating [11, 18]: 5; Plant response rating, B. signalgrass [11, 19]: 8; B. signalgrass plant response rating [11, 20]: 0; B. signalgrass plant response rating [11, 21]: 0; B. signalgrass plant response rating [11, 22]: 5; Plant response rating, B. signalgrass [11, 23]: 0; B. signalgrass plant response rating [11, 24]: 1; Rice plant response rating [12, 25]: 0; Rice plant response rating [12, 26]: 0; Rice plant response rating [12, 27]: 0; Rice plant response rating [12, 28]: 0; Crabgrass plant response rating [13, 17]: 4; Crabgrass plant response rating [13, 18]: 8; Plant response rating, Crabgrass [13, 19]: 9; Crabgrass plant response rating [13, 20]: 0; Crabgrass plant response rating [13, 21]: 1; Crabgrass plant response rating [13, 22]: 4; Plant response rating, Crabgrass [13, 23]: 1; Redroot pigweed plant response rating [14, 17]: 5; Redroot pigweed plant response rating [14, 18]: 7; Plant response rating, Redroot pigweed [14, 19]: 8; Redroot pigweed plant response rating [14, 20]: 3; Redroot pigweed plant response rating [14, 21]: 4; Redroot pigweed plant response rating [14, 22]: 6; Plant response rating, Redroot pigweed [14, 23]: 6; Wheat plant response rating [15, 17]: 0; Wheat plant response rating [15, 18]: 0; Plant response rating, Wheat [15, 19]: 0; Wheat plant response rating [15, 20]: 0; Wheat plant response rating [15, 21]: 0; Wheat plant response rating [15, 22]: 0; Plant response rating, Wheat [15, 23]: 0; Ducksalad plant response rating [16, 25]: 0; Ducksalad plant response rating [16, 26]: 0; Ducksalad plant response rating [16, 27]: 0; Ducksalad plant response rating [16, 28]: 0
